Holding throughout (format): cell-based
For experiment [1], the system named is Human renal proximal tubular cells HK2. Briefly: inhibitory effect in human renal fibrosis cell model (TGFβ1-stimulated), qPCR of fibrosis gene mRNA. The following applies: for therapeutic effect on renal fibrosis: overall conclusion from the HK2 cell model; for difference from the positive drug hydronidone group: renal fibrosis cells, hydronidone 20µmol. The procedure:
(§1) In embodiments, the method for detecting the inhibitory effect of micropeptide OFMP in a fibrotic cell model by the real-time fluorescence quantitative PCR method comprises: • counting and inoculating human hepatic stellate cells LX-2, human non-small cell lung cancer cell line A549, and human renal proximal tubular cells HK2 to culture plates; • except for the control group, adding 10nmol of recombinant human TGFβ1 stimulating factor to stimulate continuously for 24 h; • extracting and collecting the total RNA of the cell samples with a TRIzol reagent, and then reverse-transcribing the extracted total RNA using a reverse transcription reagent, and performing qPCR reaction using the qPCR premix solution; and • detecting mRNA expression levels of genes Colla1 and α-SMA using a real-time fluorescence quantitative PCR instrument.
(§2) According to the TRIzol reagent manual of Life Invitrogen, the total RNA of the cell samples was extracted and collected. Then, the purity and concentration of the extracted RNA was quantified by a NanoDrop 2000 ultra micro spectrophotometer. The integrity of the extracted RNA was inspected and ensured by agarose gel electrophoresis. A reverse transcription reagent HiScript® III RT SuperMix for qPCR (+ genomic DNA wiper) was used to perform reverse transcription on the extracted total RNA and a qPCR premix liquid ChamQ SYBR qPCR Master Mix was used to perform qPCR reaction.
(§3) After the above components were mixed well, the following procedure proceeded: initial denaturation 95°C 30s, 95°C 10s, 60°C 30s, 50 cycles. After the qPCR reaction was completed, the Cq value of each sample well was collected. The maximum error of the Cq values among the three duplicate wells of each sample should be no more than 0.5 to ensure data accuracy.
(§4) Human renal proximal tubular cells HK2 were cultured in a 37°C 5% CO2 cell incubator until the cell density was above 80%, and the cells were digested and collected by trypsin, and centrifuged. After the supernatant was discarded, the cells were counted by a cell counter, inoculated to six-well cell culture plates, and put into a 37°C 5% CO2 cell incubator to continue the culturing. The culture medium was sucked out after the cells were cultured for 24 h, a 2‰ DMSO solvent was added as a negative control, 20µmol of hydronidone was added as a positive control, 40µmol, 10µmol, 2.5µmol, 625nmol and 156nmol of the synthetic peptide OFMP were added in the equal proportion for other groups as administration groups, 10nmol of recombinant human TGFβ1 stimulating factor was added to other groups except the control groups half an hour later to continuously stimulate for 24 h, and the mRNA expression levels of genes Colla1, TGFβ1 and CTGF in OFMP3178, and the mRNA expression levels of genes Colla1 and α-SMA in OFMP2067 and OFMP1080 were detected.
A general note: Quantitative PCR measures a nucleic acid by following its amplification.

Experiment [2] deals with Human non-small cell lung cancer cell line A549. As to the kind of experiment: inhibitory effect in human pulmonary fibrosis cell model (TGFβ1-stimulated), qPCR of fibrosis gene mRNA. The following applies: for therapeutic effect on pulmonary fibrosis: overall conclusion from the A549 cell model; for difference from the positive drug Nintedanib group: pulmonary fibrosis cells, Nintedanib 2µmol. On the procedure: as §1, §2, §3
as §4, with “non-small cell lung cancer cell line A549 was” for “renal proximal tubular cells HK2 were”, “2µmol” for “20µmol”, “Nintedanib” for “hydronidone”

Experiment [3] has as its system human hepatic stellate cells LX-2. As to the kind of experiment: inhibitory effect in human liver fibrosis cell model (TGFβ1-stimulated), qPCR of fibrosis gene mRNA. The conditions noted are these: for difference from the positive drug hydronidone group: liver fibrosis cells, hydronidone 20µmol; for therapeutic effect on liver fibrosis: overall conclusion from the LX-2 cell model. On the procedure: as §1, §2, §3
as §4, with “Human hepatic stellate cells LX-2, human non-small cell lung cancer cell line A549, and human” for “Human”

[4] abbreviates: different concentrations (40µmol to 156nmol), 10nmol TGFβ1, 24 h, compared with the model group.

This is an account of results in patent EP4793281A1, “ORGAN FIBROSIS-RELATED MICROPEPTIDE (OFMP) AND USE THEREOF” (Nanjing Anji Biological Technology Co., Ltd., priority 2023, dated 2025).

With “OFMP3178 (MSLSICTLCLLPRRQEYCILKVPGLLFFLITNDLGSSDHSCLPRVKVPFKALLPGEL)”, in experiment [1] (setting [4]), the “mRNA expression level of gene CTGF in renal fibrosis cells” value is “significantly decreased”, the “mRNA expression level of gene Colla1 in renal fibrosis cells” value is reported as “significantly decreased” and the “mRNA expression level of gene TGFβ1 in renal fibrosis cells” value is “significantly decreased”. Besides, in experiment [1], the “therapeutic effect on renal fibrosis” value was “good therapeutic effect” and the “difference from the positive drug hydronidone group” value was “a significant difference”. In addition, in experiment [1] (treatment condition 40µmol-24h), the “mRNA expression level of gene CTGF in renal fibrosis cells” value is listed as “most significant decrease”, the “mRNA expression level of gene Colla1 in renal fibrosis cells” value is given as “most significant decrease” and the “mRNA expression level of gene TGFβ1 in renal fibrosis cells” value is recorded as “most significant decrease”. Also, in experiment [2] (setting [4]), the “mRNA expression level of gene CTGF in pulmonary fibrosis cells” value is “significantly decreased”, the “mRNA expression level of gene Colla1 in pulmonary fibrosis cells” value is on record as “significantly decreased” and the “mRNA expression level of gene TGFβ1 in pulmonary fibrosis cells” value was “significantly decreased”. In experiment [2], the “therapeutic effect on pulmonary fibrosis” value is given as “good therapeutic effect” and the “difference from the positive drug Nintedanib group” value is on record as “a significant difference”. Further, in experiment [2] (treatment condition 40µmol-24h), the “mRNA expression level of gene CTGF in pulmonary fibrosis cells” value is given as “most significant decrease”, the “mRNA expression level of gene Colla1 in pulmonary fibrosis cells” value was “most significant decrease” and the “mRNA expression level of gene TGFβ1 in pulmonary fibrosis cells” value is given as “most significant decrease”. Also, in experiment [3] (setting [4]), the “mRNA expression level of gene CTGF in liver fibrosis cells” value was “significantly decreased” and the “mRNA expression level of gene Colla1 in liver fibrosis cells” value is listed as “significantly decreased”. Besides, in experiment [3], the “difference from the positive drug hydronidone group” value was “a significant difference” and the “therapeutic effect on liver fibrosis” value was “good therapeutic effect”. Also, in experiment [3] (treatment condition 40µmol-24h), the “mRNA expression level of gene CTGF in liver fibrosis cells” value is recorded as “most significant decrease” and the “mRNA expression level of gene Colla1 in liver fibrosis cells” value is reported as “most significant decrease”.
Take “OFMP2067 (MHLDHSDPITRDHMGSVMAQVRQKLFQFLQAEPHNSLGKAARRLSLMLHGLVTPSLP)”: in experiment [1] (setting [4]), the “mRNA expression level of gene Colla1 in renal fibrosis cells” value is given as “significantly decreased” and the “mRNA expression level of gene α-SMA in renal fibrosis cells” value is recorded as “significantly decreased”. Also, in experiment [1], the “therapeutic effect on renal fibrosis” value is “good therapeutic effect” and the “difference from the positive drug hydronidone group” value was “a significant difference”. Besides, in experiment [1] (treatment condition 40µmol-24h), the “mRNA expression level of gene Colla1 in renal fibrosis cells” value is on record as “most significant decrease” and the “mRNA expression level of gene α-SMA in renal fibrosis cells” value was “most significant decrease”. Further, in experiment [2] (setting [4]), the “mRNA expression level of gene Colla1 in pulmonary fibrosis cells” value is listed as “significantly decreased” and the “mRNA expression level of gene α-SMA in pulmonary fibrosis cells” value is reported as “significantly decreased”. For the same substance, in experiment [2], the “therapeutic effect on pulmonary fibrosis” value is on record as “good therapeutic effect” and the “difference from the positive drug Nintedanib group” value is “a significant difference”. Further, in experiment [2] (treatment condition 40µmol-24h), the “mRNA expression level of gene Colla1 in pulmonary fibrosis cells” value is reported as “most significant decrease” and the “mRNA expression level of gene α-SMA in pulmonary fibrosis cells” value is on record as “most significant decrease”. In experiment [3] (setting [4]), the “mRNA expression level of gene Colla1 in liver fibrosis cells” value is on record as “significantly decreased” and the “mRNA expression level of gene α-SMA in liver fibrosis cells” value is reported as “significantly decreased”. In experiment [3], the “difference from the positive drug hydronidone group” value is on record as “a significant difference” and the “therapeutic effect on liver fibrosis” value is “good therapeutic effect”. In experiment [3] (treatment condition 40µmol-24h), the “mRNA expression level of gene Colla1 in liver fibrosis cells” value is reported as “most significant decrease” and the “mRNA expression level of gene α-SMA in liver fibrosis cells” value is “most significant decrease”.
Consider “OFMP1080 (MRHRLVSLSVTSCVTPAAGTRRGSAGAVGTNTGRGGPPPHALRASGEQSPAQGVS)”, for which the “mRNA expression level of gene Colla1 in renal fibrosis cells” value is recorded as “significantly decreased” in experiment [1] (setting [4]) and “most significant decrease” in experiment [1] (treatment condition 40µmol-24h). Moreover, the “therapeutic effect on renal fibrosis” value in experiment [1] is recorded as “good therapeutic effect”. Further, the “mRNA expression level of gene Colla1 in pulmonary fibrosis cells” value is “significantly decreased” in experiment [2] (setting [4]) and “most significant decrease” in experiment [2] (treatment condition 10µmol-24h). Besides, the “therapeutic effect on pulmonary fibrosis” value in experiment [2] was “good therapeutic effect”. In addition, the figures for the “mRNA expression level of gene Colla1 in liver fibrosis cells” value in experiment [3] (setting [4]) and in experiment [3] (treatment condition 40µmol-24h) were “significantly decreased” and “most significant decrease”, respectively. Also, the “difference from the positive drug hydronidone group” value in experiment [3] is “not a significant difference”. Further, the “therapeutic effect on liver fibrosis” value in experiment [3] is reported as “good therapeutic effect”. For the same substance, in experiment [3] (treatment condition 40µmol-24h), the “mRNA expression level of gene α-SMA in liver fibrosis cells” value is “most significant decrease”.
